The values that follow come from patent US20080176866A1, “NOVEL HETARYL-PHENYLENEDIAMINE-PYRIMIDINES AS PROTEIN KINASE INHIBITORS” (priority 2006, published 2008).

By IC50 is commonly meant the concentration needed to halve the response being measured. Read a low IC50 as inhibition by little substance.

In one assay the target is T1, CDK2/CycE (Homo sapiens, UniProt P24941).
T1 construct: GST; purchased ProQinase GmbH, Freiburg; host or cells: baculovirus-infected insect cells (Sf9)
Kind of assay: CDK2/CycE kinase assay (HTRF). Type of assay: biochemical. As to conditions: 10 μM ATP. The procedure:
The CDK2/CycE inhibitory activity of the substances of this invention was measured in the CDK2/CycE-HTRF assay (HTRF=Homogeneous Time Resolved Fluorescence) described in the following paragraphs.
Recombinant CDK2-GST and CycE-GST fusion proteins purified from baculovirus-infected insect cells (Sf9) were purchased from ProQinase GmbH, Freiburg. The substrate used for the kinase reaction was the biotinylated peptide biotin-Ttds-YISPLKSPYKISEG (C terminus in amide form) which can be purchased for example from JERINI Peptide Technologies (Berlin).
CDK2/CycE was incubated in the presence of various concentrations of test substances in 5 μL of assay buffer [50 mM Tris/HCl pH 8.0, 10 mM MgCl2, 1.0 mM dithiothreitol, 0.1 mM sodium orthovanadate, 10 μM adenosine triphosphate (ATP), 0.75 μM substrate, 0.01% (v/v) Nonidet-P40 (Sigma), 1% (v/v) dimethyl sulphoxide] at 22° C. for 60 min. The concentration of CDK2/CycE was adapted to the particular activity of the enzyme and adjusted so that the assay operated in the linear range. Typical concentrations were in the region of 1 ng/ml. The reaction was stopped by adding 5 μl of a solution of HTRF detection reagents (0.2 μM streptavidin-XLent and 3.4 nM phospho-(Ser) CDKs substrate antibody [product #2324B, Cell Signaling Technology, Danvers, Mass., USA] and 4 nM Prot-A-EuK [protein A labelled with Europium cryptate from C is biointernational, France, product No. 61 PRAKLB]) in aqueous EDTA solution (100 mM EDTA, 800 mM KF, 0.2% (w/v) bovine serum albumin (BSA) in 100 mM HEPES/NaOH pH 7.0).
(§1) The resulting mixture was incubated at 22° C. for 1 h in order to allow formation of a complex of the biotinylated phosphorylated substrate and the detection reagents. The amount of phosphorylated substrate was then estimated by measuring the resonance energy transfer from the Prot-A-EuK to the streptavidin-XLent. For this purpose, the fluorescence emissions at 620 nm and 665 nm after excitation at 350 nm were measured in an HTRF measuring instrument, e.g. a Rubystar (BMG Labtechnologies, Offenburg, Germany) or a Viewlux (Perkin-Elmer). The ratio of the emissions at 665 nm and at 622 nm was taken as a measure of the amount of phosphorylated substrate. The data were normalized (enzymic reaction without inhibitor=0% inhibition, all other assay components but no enzyme=100% inhibition) and IC50 values were calculated with a 4-parameter fit using an inhouse software.
On the technique in general: Time-resolved FRET reads energy transfer from a long-lived donor to a nearby acceptor.

Another assay deals with T2, human Aurora-C (Homo sapiens, UniProt Q9UQB9).
T2 construct: GST; made in house; host or cells: transiently transfected HEK293 cells
T2 sequence (Q9UQB9 1-309): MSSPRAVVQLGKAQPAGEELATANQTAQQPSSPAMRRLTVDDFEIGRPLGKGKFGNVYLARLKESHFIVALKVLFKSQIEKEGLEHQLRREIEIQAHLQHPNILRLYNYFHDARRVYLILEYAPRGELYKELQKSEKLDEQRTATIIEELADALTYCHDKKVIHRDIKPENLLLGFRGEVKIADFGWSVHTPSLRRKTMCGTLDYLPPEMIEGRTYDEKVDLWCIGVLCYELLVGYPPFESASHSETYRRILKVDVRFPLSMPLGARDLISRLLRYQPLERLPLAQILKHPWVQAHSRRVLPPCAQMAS
Kind of assay: Aurora-C kinase assay (HTRF). Type of assay: biochemical. As to conditions: GST-human Aurora-C, 10 μM ATP. As for the experimental part:
The Aurora-C inhibitory activity of the substances of this invention was measured in the Aurora-C-HTRF assay (HTRF=Homogeneous Time Resolved Fluorescence) described in the following paragraphs.
Recombinant fusion protein of GST and human Aurora-C was expressed in transiently transfected HEK293 cells and purified by affinity chromatography on glutathione-Sepharose. The substrate used for the kinase reaction was the biotinylated peptide biotin-Ttds-FMRLRRLSTKYRT (C terminus in amide form) which can be purchased for example from JERINI Peptide Technologies (Berlin). Aurora-C was incubated in the presence of various concentrations of test substances in 5 μL of assay buffer [25 mM Hepes/NaOH pH 7.4, 0.5 mM MnCl2, 2.0 mM dithiothreitol, 0.1 mM sodium orthovanadate, 10 μM adenosine triphosphate (ATP), […] substrate, 0.01% (v/v) TritonX-100 (Sigma), 0.05% (w/v) bovine serum albumin (BSA), 1% (v/v) dimethyl sulphoxide] at 22° C. for 60 min. The concentration of Aurora-C was adapted to the particular activity of the enzyme and adjusted so that the assay operated in the linear range. Typical concentrations were in the region of 0.3 nM. The reaction was stopped by adding 5 μl of a solution of HTRF detection reagents (0.2 μM streptavidin-XLent and 1.4 nM anti-phospho-(Ser/Thr)-Akt substrate-Eu-cryptate (C is biointernational, France, product No. 61P02KAE), a Europium-cryptate-labelled phospho-(Ser/Thr)-Akt substrate antibody [product #9611B, Cell Signaling Technology, Danvers, Mass., USA]) in aqueous EDTA solution (40 mM EDTA, 400 mM KF, 0.05% (w/v) bovine serum albumin (BSA) in 25 mM HEPES/NaOH pH 7.0).
as §1, with “anti-phospho-(Ser/Thr)-Akt substrate-Eu cryptate” for “Prot-A-EuK”

On to `CSc1nc(Nc2ccc(Nc3ccccn3)cc2)ncc1Br` [Example 29], for which the IC50 came out at 260 nM against CDK2/CycE and 8100 nM at human Aurora-C.

Regarding `C[C@@H](O)[C@@H](C)Nc1nc(Nc2ccc(Oc3ncccn3)cc2)ncc1Br` [Example 34], the concentration for half-maximal inhibition (IC50) is 9.1 nM on CDK2/CycE and 490 nM at human Aurora-C.

As to `CC(=O)NCCNc1nc(Nc2cccc(Nc3ncc(Br)c(NCCNC(C)=O)n3)c2)ncc1Br` [Example 30], the IC50 at CDK2/CycE amounted to 5800 nM; on human Aurora-C, 53 nM.

In the case of `C[C@@H](O)[C@@H](C)Oc1nc(Nc2ccc(Nc3nccc(N)n3)cc2)ncc1Br` [Example 16], the results for the IC50 against CDK2/CycE and on human Aurora-C were 2 nM and 42 nM, respectively.

Consider `C[C@@H](O)[C@@H](C)Oc1nc(Nc2cccc(Nc3nccc(OCCO)n3)c2)ncc1Br` [Example 27], for which the IC50 was determined as 2.4 nM at CDK2/CycE and 440 nM at human Aurora-C.

On to `Cc1cnc(Nc2ccc(Nc3ncc(Br)c(O[C@H](C)[C@@H](C)O)n3)cc2)nc1NCCO` [Example 19], for which the results for the half-inhibitory concentration (IC50) on CDK2/CycE and on human Aurora-C were 2.2 nM and 91 nM, respectively.

Regarding `COc1ccnc(Nc2ccc(Nc3ncc(Br)c(O[C@H](C)[C@@H](C)O)n3)cc2)n1` [Example 22], the IC50 at CDK2/CycE was determined as 4.8 nM; on human Aurora-C it was 270 nM.

As to `C[C@@H](O)[C@@H](C)Nc1nc(Nc2ccc(Sc3nncn3C)cc2)ncc1Br` [Example 39], the IC50 turned out to be 1.3 nM at CDK2/CycE and 350 nM on human Aurora-C.

Take `C[C@@H](O)[C@@H](C)Nc1nc(Nc2ccc(Oc3cccnc3)cc2)ncc1Br` [Example 33]: the IC50 on CDK2/CycE is 6.6 nM; at human Aurora-C, 380 nM.

For `C[C@@H](O)[C@@H](C)Oc1nc(Nc2ccc(Nc3nccc(OCCO)n3)cc2)ncc1Br` [Example 8, (2R,3R)-3-(5-Bromo-2-{4-[4-(2-hydroxyethoxy)pyrimidin-2-ylamino]-phenylamino}pyrimidin-4-yloxy)butan-2-ol], the results for the IC50 at CDK2/CycE and at human Aurora-C were 2.8 nM and 200 nM, respectively.

As for `C[C@@H](O)[C@@H](C)Oc1nc(Nc2ccc(Nc3nccc(N(C)C)n3)cc2)ncc1Br` [Example 17], the figures for the IC50 on CDK2/CycE and at human Aurora-C were 4.4 nM and 100 nM, respectively.

For the compound `C[C@@H](O)[C@@H](C)Sc1nc(Nc2ccc(Nc3ncc(Cl)c(NCCO)n3)cc2)ncc1Br` [Example 44], the figures for the IC50 against CDK2/CycE and on human Aurora-C were 370 nM and 1000 nM, respectively.

In the case of `C[C@@H](O)[C@@H](C)Oc1nc(Nc2cccc(Nc3ncccn3)c2)ncc1Br` [Example 25], the results for the IC50 against CDK2/CycE and at human Aurora-C were 2 nM and 340 nM, respectively.

Regarding `C[C@@H](O)[C@@H](C)Oc1nc(Nc2ccc(Nc3ncccn3)cc2)ncc1Br` [Example 15], the half-maximal inhibitory concentration (IC50) was 2.9 nM at CDK2/CycE and 140 nM against human Aurora-C.

Consider `C[C@@H](O)[C@@H](C)Oc1nc(Nc2ccc(Nc3nccc(NCCN(C)C)n3)cc2)ncc1Br` [Example 18], for which the figures for the IC50 at CDK2/CycE and against human Aurora-C were 5.9 nM and 75 nM, respectively.

As to `C[C@@H](O)[C@@H](C)Oc1nc(Nc2ccc(Nc3ncc(Br)cn3)cc2)ncc1Br` [Example 24], the figures for the half-maximal inhibitory concentration (IC50) at CDK2/CycE and at human Aurora-C were 6.2 nM and 130 nM, respectively.

Turning to `C[C@@H](O)[C@@H](C)Oc1nc(Nc2ccc(Nc3ncc(Cl)c(NCCO)n3)cc2)ncc1Br` [Example 21], the IC50 against CDK2/CycE came to 2.2 nM; at human Aurora-C, 180 nM.
